Values joined by “and” are separate entries in the source; they are usually repeats but may differ in a detail not shown here. Equal entries are not always repeated.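 Five compound concentrations were applied to cells in 96-well plates for 48 hours; endpoints were derived by simple linear interpolation of the resulting dose-response curve. GI50 marks 50% less growth. The concentration for full growth arrest is given as TGI.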

From PubChem BioAssay (NCI) come the findings set out here.

The first experiment has as its system EKVX NSCLC. The experiment in a line: growth of human tumour cells (NCI), 48 h.
For the compound `CCn1c(=O)c2c(=O)c3c4c(oc3oc2c2ccccc21)C(=O)c1ccccc1C4=O`, the GI50 is 1.47 µM and the TGI was over 100 µM.

Take `NC(=O)c1cc(S(=O)(=O)Nc2nnc(-c3ccccc3)c(-c3ccccc3)n2)c(SCc2ccccc2)cc1Cl`: the GI50 was over 100 µM and the TGI is over 100 µM.

Take `C1=C\COCc2cc(ccc2OCCN2CCCC2)Nc2nccc(n2)-c2cccc(c2)COC/1`: the GI50 was 2.76 µM and the TGI turned out to be 7.73 µM.

`COc1ccc(-c2coc3c4c(ccc3c2=O)OCO4)cc1OC` yielded a TGI of over 100 µM.

In the case of `CC(C)(S)C(N)C(=O)O` (stereo not drawn), the GI50 is 1190 µM; the TGI was 3600 µM and > 100 µM.

With `CN1C(=O)/C(=C/c2c(Cl)n(C)c3ccccc23)c2ccccc21`, the GI50 is 2.11 µM and the TGI came to 6.03 µM.

`Cc1nc(-[n+]2nc(-c3ccncc3)nn2-c2ccccc2)sc1C` gave a TGI of over 100 µM.

`COc1cc2c3c(n(CCCOC(=O)C(F)(F)F)c(=O)c2cc1OC)-c1cc2c(cc1C3=O)OCO2`: the GI50 is 0.612 µM and the TGI is over 63.8 µM.

Take `CCOC(=O)/C=C(/C)Sc1cc(O)c2ccccc2c1O`: the GI50 is 3.89 µM and the TGI worked out at 21.2 µM.

As for `N=C(N)c1ccc2nc(-c3cc(CC(=O)N[C@@H](CC(=O)O)C(=O)O)cc(-c4cc(S(N)(=O)=O)ccc4O)c3O)[nH]c2c1`, the GI50 is over 100 µM and the TGI was over 100 µM.

`O=C(O)c1ccc(OCc2ccccc2)c(Cl)c1`: the TGI was over 100 µM.

For the compound `OCCCNc1nccc(-c2c(-c3ccc(F)cc3)nn3cc(C(F)(F)F)ccc23)n1`, the GI50 is 20.5 µM and the TGI was over 25 µM.

As for `O=S(=O)(Nc1ccc(F)cc1F)c1ccc(-c2cnc(C3CC3)o2)cc1`, the GI50 was 1.44 µM and the TGI was over 73 µM.

On to `CCOc1ccncc1[N+](=O)[O-]`, for which the TGI is over 100 µM.

The compound `C=C1C(=O)OC2CC(C)C3(O)CCC(=O)C3(C)CC12` (stereo not drawn) yielded a TGI of over 100 µM.

Compound `Cc1nc2sc3c(c2c(=O)[nH]1)CCCC3` gave a TGI of over 100 µM.

Consider `O=C1NC(=O)/C(=C\c2ccccc2)C2=C1CCCC2`, for which the GI50 is 14.3 µM and the TGI was 29.5 µM.

The compound `O=CN1CCN(CC(O)CN2CCCCC2)CC1` (stereo not drawn) had a TGI of over 100 µM.

For a further experiment, the system named is HCT-116 colon. The experiment in a line: growth of human tumour cells (NCI), 48 h.
In turn, `CCn1c(=O)c2c(=O)c3c4c(oc3oc2c2ccccc21)C(=O)c1ccccc1C4=O` registered a TGI of over 100 µM.

Turning to `NC(=O)c1cc(S(=O)(=O)Nc2nnc(-c3ccccc3)c(-c3ccccc3)n2)c(SCc2ccccc2)cc1Cl`, the GI50 is over 100 µM and the TGI is over 100 µM.

Consider `C1=C\COCc2cc(ccc2OCCN2CCCC2)Nc2nccc(n2)-c2cccc(c2)COC/1`, for which the GI50 is 1.03 µM and the TGI came to 4.07 µM.

Take `COc1ccc(-c2coc3c4c(ccc3c2=O)OCO4)cc1OC`: the TGI is over 100 µM.

For `CC(C)(S)C(N)C(=O)O` (stereo not drawn), the GI50 is 1860 µM and the TGI was over 5000 µM.

Regarding `CN1C(=O)/C(=C/c2c(Cl)n(C)c3ccccc23)c2ccccc21`, the TGI is 1.39 µM.

As for `Cc1nc(-[n+]2nc(-c3ccncc3)nn2-c2ccccc2)sc1C`, the TGI was over 100 µM.

On to `COc1cc2c3c(n(CCCOC(=O)C(F)(F)F)c(=O)c2cc1OC)-c1cc2c(cc1C3=O)OCO2`, for which the GI50 is under 0.0158 µM.

With `CCOC(=O)/C=C(/C)Sc1cc(O)c2ccccc2c1O`, the GI50 is 2.05 µM and the TGI came out at 4.95 µM.

For the compound `N=C(N)c1ccc2nc(-c3cc(CC(=O)N[C@@H](CC(=O)O)C(=O)O)cc(-c4cc(S(N)(=O)=O)ccc4O)c3O)[nH]c2c1`, the GI50 was over 100 µM and the TGI is over 100 µM.

`O=C(O)c1ccc(OCc2ccccc2)c(Cl)c1` yielded a TGI of over 100 µM.

For `OCCCNc1nccc(-c2c(-c3ccc(F)cc3)nn3cc(C(F)(F)F)ccc23)n1`, the GI50 was 11.7 µM and the TGI is over 25 µM.

As to `O=S(=O)(Nc1ccc(F)cc1F)c1ccc(-c2cnc(C3CC3)o2)cc1`, the GI50 is 0.421 µM and the TGI was over 64 µM.

`CCOc1ccncc1[N+](=O)[O-]` yielded a TGI of over 100 µM.

The compound `C=C1C(=O)OC2CC(C)C3(O)CCC(=O)C3(C)CC12` (stereo not drawn) gave a TGI of 99.4 µM.

Compound `Cc1nc2sc3c(c2c(=O)[nH]1)CCCC3` registered a TGI of over 100 µM.

`O=C1NC(=O)/C(=C\c2ccccc2)C2=C1CCCC2`: the GI50 was 3.38 µM and the TGI worked out at 11.1 µM.

Consider `O=CN1CCN(CC(O)CN2CCCCC2)CC1` (stereo not drawn), for which the TGI is over 100 µM.

A further experiment has as its system IGROV1 ovarian. The experiment in a line: growth of human tumour cells (NCI), 48 h.
For the compound `CCn1c(=O)c2c(=O)c3c4c(oc3oc2c2ccccc21)C(=O)c1ccccc1C4=O`, the GI50 is over 50.1 µM and the TGI was over 100 µM.

Regarding `NC(=O)c1cc(S(=O)(=O)Nc2nnc(-c3ccccc3)c(-c3ccccc3)n2)c(SCc2ccccc2)cc1Cl`, the GI50 was over 54.7 µM and the TGI is over 94.3 µM.

Turning to `C1=C\COCc2cc(ccc2OCCN2CCCC2)Nc2nccc(n2)-c2cccc(c2)COC/1`, the GI50 is 0.871 µM and the TGI turned out to be 3.85 µM.

Compound `COc1ccc(-c2coc3c4c(ccc3c2=O)OCO4)cc1OC` had a TGI of over 100 µM.

As to `CC(C)(S)C(N)C(=O)O` (stereo not drawn), the TGI is over 100 µM.

`CN1C(=O)/C(=C/c2c(Cl)n(C)c3ccccc23)c2ccccc21`: the GI50 was 4.34 µM.

`Cc1nc(-[n+]2nc(-c3ccncc3)nn2-c2ccccc2)sc1C`: the TGI was over 100 µM.

On to `COc1cc2c3c(n(CCCOC(=O)C(F)(F)F)c(=O)c2cc1OC)-c1cc2c(cc1C3=O)OCO2`, for which the GI50 was 0.555 µM and the TGI was over 100 µM.

Consider `CCOC(=O)/C=C(/C)Sc1cc(O)c2ccccc2c1O`, for which the GI50 was 2.26 µM and the TGI worked out at 17.8 µM.

Consider `N=C(N)c1ccc2nc(-c3cc(CC(=O)N[C@@H](CC(=O)O)C(=O)O)cc(-c4cc(S(N)(=O)=O)ccc4O)c3O)[nH]c2c1`, for which the GI50 is over 100 µM and the TGI is over 100 µM.

Take `O=C(O)c1ccc(OCc2ccccc2)c(Cl)c1`: the TGI is over 100 µM.

Take `OCCCNc1nccc(-c2c(-c3ccc(F)cc3)nn3cc(C(F)(F)F)ccc23)n1`: the GI50 is 12 µM and the TGI is over 25 µM.

Consider `O=S(=O)(Nc1ccc(F)cc1F)c1ccc(-c2cnc(C3CC3)o2)cc1`, for which the GI50 is 0.535 µM and the TGI amounted to 67.2 µM.

`CCOc1ccncc1[N+](=O)[O-]` returned a TGI of over 100 µM.

Regarding `C=C1C(=O)OC2CC(C)C3(O)CCC(=O)C3(C)CC12` (stereo not drawn), the TGI turned out to be 82.6 µM.

The compound `Cc1nc2sc3c(c2c(=O)[nH]1)CCCC3` had a TGI of over 100 µM.

On to `O=C1NC(=O)/C(=C\c2ccccc2)C2=C1CCCC2`, for which the GI50 was 13 µM and the TGI worked out at 32.4 µM.

As for `O=CN1CCN(CC(O)CN2CCCCC2)CC1` (stereo not drawn), the TGI is over 100 µM.

Another experiment deals with NCI-H460 lung. The experiment in a line: growth of human tumour cells (NCI), 48 h.
On to `CCn1c(=O)c2c(=O)c3c4c(oc3oc2c2ccccc21)C(=O)c1ccccc1C4=O`, for which the GI50 was over 100 µM and the TGI was over 100 µM.

`NC(=O)c1cc(S(=O)(=O)Nc2nnc(-c3ccccc3)c(-c3ccccc3)n2)c(SCc2ccccc2)cc1Cl`: the GI50 was over 46.2 µM and the TGI was over 83.1 µM.

For the compound `C1=C\COCc2cc(ccc2OCCN2CCCC2)Nc2nccc(n2)-c2cccc(c2)COC/1`, the GI50 is 1.39 µM and the TGI stood at 5.12 µM.

Turning to `COc1ccc(-c2coc3c4c(ccc3c2=O)OCO4)cc1OC`, the TGI was over 100 µM.

In the case of `CC(C)(S)C(N)C(=O)O` (stereo not drawn), the GI50 was 937 µM; the TGI was 2730 µM and > 100 µM.

With `CN1C(=O)/C(=C/c2c(Cl)n(C)c3ccccc23)c2ccccc21`, the GI50 was 6.17 µM and 2.84 µM; the TGI was over 100 µM.

On to `COc1cc2c3c(n(CCCOC(=O)C(F)(F)F)c(=O)c2cc1OC)-c1cc2c(cc1C3=O)OCO2`, for which the GI50 was 3 µM and the TGI was over 100 µM.

Take `CCOC(=O)/C=C(/C)Sc1cc(O)c2ccccc2c1O`: the GI50 is 13.9 µM and the TGI stood at 30.4 µM.

In the case of `N=C(N)c1ccc2nc(-c3cc(CC(=O)N[C@@H](CC(=O)O)C(=O)O)cc(-c4cc(S(N)(=O)=O)ccc4O)c3O)[nH]c2c1`, the GI50 is over 100 µM and the TGI was over 100 µM.

`O=C(O)c1ccc(OCc2ccccc2)c(Cl)c1` came in with a TGI of over 100 µM.

With `OCCCNc1nccc(-c2c(-c3ccc(F)cc3)nn3cc(C(F)(F)F)ccc23)n1`, the GI50 was 9.12 µM and the TGI was over 25 µM.

With `O=S(=O)(Nc1ccc(F)cc1F)c1ccc(-c2cnc(C3CC3)o2)cc1`, the GI50 was 0.404 µM and the TGI turned out to be 28.2 µM.

With `Cc1nc2sc3c(c2c(=O)[nH]1)CCCC3`, the TGI was 86.1 µM.

`O=C1NC(=O)/C(=C\c2ccccc2)C2=C1CCCC2`: the GI50 is 16.3 µM and the TGI amounted to 36 µM.

For another experiment, the system named is NCI-H522 lung. The experiment in a line: growth of human tumour cells (NCI), 48 h.
As to `CCn1c(=O)c2c(=O)c3c4c(oc3oc2c2ccccc21)C(=O)c1ccccc1C4=O`, the GI50 was over 100 µM and the TGI is over 100 µM.

In the case of `NC(=O)c1cc(S(=O)(=O)Nc2nnc(-c3ccccc3)c(-c3ccccc3)n2)c(SCc2ccccc2)cc1Cl`, the GI50 is over 44 µM and the TGI was over 68.3 µM.

For the compound `C1=C\COCc2cc(ccc2OCCN2CCCC2)Nc2nccc(n2)-c2cccc(c2)COC/1`, the GI50 is 3.08 µM and the TGI amounted to 5.23 µM.

The compound `COc1ccc(-c2coc3c4c(ccc3c2=O)OCO4)cc1OC` showed a TGI of over 100 µM.

Turning to `CC(C)(S)C(N)C(=O)O` (stereo not drawn), the GI50 was 4600 µM and the TGI is over 5000 µM.

Turning to `CN1C(=O)/C(=C/c2c(Cl)n(C)c3ccccc23)c2ccccc21`, the GI50 was 5.12 µM.

As for `Cc1nc(-[n+]2nc(-c3ccncc3)nn2-c2ccccc2)sc1C`, the TGI came to 76.5 µM.

Turning to `COc1cc2c3c(n(CCCOC(=O)C(F)(F)F)c(=O)c2cc1OC)-c1cc2c(cc1C3=O)OCO2`, the GI50 is 0.0167 µM.

As to `CCOC(=O)/C=C(/C)Sc1cc(O)c2ccccc2c1O`, the GI50 was 1.73 µM and the TGI was found to be 4.66 µM.

Turning to `N=C(N)c1ccc2nc(-c3cc(CC(=O)N[C@@H](CC(=O)O)C(=O)O)cc(-c4cc(S(N)(=O)=O)ccc4O)c3O)[nH]c2c1`, the GI50 is over 100 µM and the TGI is over 100 µM.

Turning to `O=C(O)c1ccc(OCc2ccccc2)c(Cl)c1`, the TGI was over 100 µM.

Consider `OCCCNc1nccc(-c2c(-c3ccc(F)cc3)nn3cc(C(F)(F)F)ccc23)n1`, for which the GI50 is 16.7 µM and the TGI is over 25 µM.

Take `O=S(=O)(Nc1ccc(F)cc1F)c1ccc(-c2cnc(C3CC3)o2)cc1`: the GI50 is 0.347 µM and the TGI is 16 µM.

Compound `CCOc1ccncc1[N+](=O)[O-]` registered a TGI of over 100 µM.

For the compound `C=C1C(=O)OC2CC(C)C3(O)CCC(=O)C3(C)CC12` (stereo not drawn), the TGI came out at 30.3 µM.

In turn, `Cc1nc2sc3c(c2c(=O)[nH]1)CCCC3` registered a TGI of over 100 µM.

On to `O=C1NC(=O)/C(=C\c2ccccc2)C2=C1CCCC2`, for which the GI50 was 13.7 µM and the TGI was found to be 32.1 µM.

The compound `O=CN1CCN(CC(O)CN2CCCCC2)CC1` (stereo not drawn) yielded a TGI of over 100 µM.

For a further experiment, the system named is NCI/ADR-RES ovarian. Description: growth of human tumour cells (NCI), 48 h.
For `CCn1c(=O)c2c(=O)c3c4c(oc3oc2c2ccccc21)C(=O)c1ccccc1C4=O`, the GI50 is 13.8 µM and the TGI is over 100 µM.

In the case of `NC(=O)c1cc(S(=O)(=O)Nc2nnc(-c3ccccc3)c(-c3ccccc3)n2)c(SCc2ccccc2)cc1Cl`, the GI50 was over 100 µM and the TGI is over 100 µM.
